“Also recorded” adds a separate entry of the source.
Assays:
[1] = system: BFTC905 xenograft; test: BFTC905 xenograft mouse model; type: in vivo, NOD/SCID male mice; conditions: start three days after cell injection, observed at least 17 days, vs DMSO control
Protocol: In vivo testing of exemestane, cephaeline and 1,4 chrysenequinone was performed in xenograft mouse models. Particularly, the model was established after injecting […] BFTC905 cells subcutaneously into the tail base of NOD/SCID male mice. Male mice were selected for these experiments since males are more prone to develop BC. The treatments started three days after the injections of the cancer cells. The treatment scheme was 30 mg/kg/every 3rd day for exemestane, 5 mg/kg/daily for cephaeline and 5 mg/kg/daily for 1,4 chrysenequinone. As controls were used animals injected with DMSO diluted in PBS (at a final concentration similar to the one of the compounds).
FIG. 3. The impact of cephaeline, exemestane and 1,4 chrysenequinone in vivo in BFTC905 xenograft mouse models.

[2] = system: BC cell lines: non-muscle invasive (RT112) and muscle invasive (T24, BFTC905, HT1376) cells; test: in vitro screening of drug candidates on growth/proliferation of BC cell lines; type: cell-based; conditions: for proliferation rate of the BC cells (dose response curves): FIG. 2; for cell growth of BC cells: in vitro, panel of BC cell lines RT112, T24, BFTC905, HT1376
Protocol: The impact of the drug candidates onto the malignant phenotype of BC cells was assessed in vitro in a panel of multi-origin BC cell lines representing different stages during disease progression. These included non-muscle invasive (RT112) and muscle invasive (T24, BFTC905, HT1376) cells.
Accordingly, these compounds were selected for further investigation, here providing the response curves for four different BC cell lines. Representative response curves of the seven compounds are presented in FIG. 2, along with the respective IC50s. A clear impact was observed on the proliferation of the BC cells for all seven compounds.
FIG. 2. The dose response curves of cephaeline (i-ii), exemestane (iii-iv) and 1,4 chrysenequinone (v-vi) in the BC cell lines RT112, T24, HT1376 and BFTC905. The dose response curves of fluvoxamine (vii), amiodarone (viii), isradipine (ix) and amodiaquine (x) in the RT112 cells are also provided.

[3] = BC cell lines RT112, T24, HT1376 and BFTC905

Row | SMILES | impact on tumor establishment or growth ([1]; 30 mg/kg/every 3rd day) | proliferation rate of the BC cells (dose response curves) [2, 3] | cell growth of BC cells [2] | impact on tumor establishment or growth ([1]; 5 mg/kg/daily) | proliferation rate of the BC cells (dose response curves) ([2]; RT112 cells)
1 | C=C1C[C@@H]2[C@H](CC[C@]3(C)C(=O)CC[C@@H]23)[C@@]2(C)C=CC(=O)C=C12 [exemestane] | clear impact on tumor establishment or growth; also recorded: significantly decreased tumor establishment or growth | significantly decreased the proliferation rate | prevented cell growth at relatively low concentrations |  | 
2 | O=C1C=CC(=O)c2c1ccc1c2ccc2ccccc21 [1,4-chrysenequinone] |  | significantly decreased the proliferation rate | prevented cell growth at relatively low concentrations | no significant impact on tumour growth | 
3 | COC(=O)C1=C(C)NC(C)=C(C(=O)OC(C)C)C1c1cccc2nonc12 (centres unmarked) [isradipine] |  |  | prevented cell growth at relatively low concentrations |  | significantly decreased the proliferation rate
4 | CCN(CC)Cc1cc(Nc2ccnc3cc(Cl)ccc23)ccc1O [amodiaquine] |  |  | prevented cell growth at relatively low concentrations |  | significantly decreased the proliferation rate
5 | COCCCC/C(=N\OCCN)c1ccc(C(F)(F)F)cc1 [fluvoxamine] |  |  | prevented cell growth at relatively low concentrations |  | significantly decreased the proliferation rate
6 | CCCCc1oc2ccccc2c1C(=O)c1cc(I)c(OCCN(CC)CC)c(I)c1 [amiodarone] |  |  | prevented cell growth at relatively low concentrations |  | significantly decreased the proliferation rate

From patent US20260245655A1, “METHODS FOR DETERMINING DRUG CANDIDATES” (MOSAIQUES DIAGNOSTICS AND THERAPEUTICS AG, priority 2023, published 2026)
